Experimental data as given in patent publication US10189854B2, “Substituted pyrimidine compounds” (Grünenthal GmbH, priority 2014, dated 2019).
Structures can show the parent of a compound that is named as a salt.

Biological target: human PDE4B1 (Homo sapiens (Human), UniProt Q07343)
Assay: TR-FRET assay using the LANCE Ultra cAMP kit to determine the activity of hPDE4B1
Format: biochemical
Settings: IC50 inhibition of PDE4B, mean
Outline: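 Recombinant human PDE4B1 (Sf9-expressed, 0.96 U) incubated with compound and 500 nM cAMP in 50 mM Tris-HCl, 50 mM MgCl2, 5 mM DTT, pH 8.5, 30 min at room temperature. Residual cAMP read by TR-FRET (665/620 nm ratio) after IBMX stop. IC50 from ten-concentration curves as % inhibition of control.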

Chain of human PDE4B1 (Q07343 whole entry): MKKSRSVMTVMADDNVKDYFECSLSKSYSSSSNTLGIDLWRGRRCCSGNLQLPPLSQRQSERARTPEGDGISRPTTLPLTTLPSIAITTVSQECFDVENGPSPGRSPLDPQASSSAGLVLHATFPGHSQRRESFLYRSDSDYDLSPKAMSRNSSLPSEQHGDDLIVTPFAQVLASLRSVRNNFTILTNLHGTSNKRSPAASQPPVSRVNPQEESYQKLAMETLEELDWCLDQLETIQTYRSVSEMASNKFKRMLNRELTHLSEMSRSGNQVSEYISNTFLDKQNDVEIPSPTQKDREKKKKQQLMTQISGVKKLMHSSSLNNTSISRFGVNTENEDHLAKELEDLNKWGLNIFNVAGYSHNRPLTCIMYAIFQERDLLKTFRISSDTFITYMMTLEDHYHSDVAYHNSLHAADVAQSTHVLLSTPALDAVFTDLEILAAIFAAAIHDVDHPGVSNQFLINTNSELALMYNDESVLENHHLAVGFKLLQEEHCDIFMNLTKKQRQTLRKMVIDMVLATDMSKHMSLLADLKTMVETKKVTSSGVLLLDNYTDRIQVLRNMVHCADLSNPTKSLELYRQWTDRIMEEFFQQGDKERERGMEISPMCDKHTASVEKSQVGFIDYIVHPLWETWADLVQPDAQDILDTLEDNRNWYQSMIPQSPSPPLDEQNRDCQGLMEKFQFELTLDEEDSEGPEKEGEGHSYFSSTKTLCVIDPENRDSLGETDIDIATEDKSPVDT

## CN(C)c1ccnc(-c2cnc(N3CC4(CC4)c4ccc(C(=O)N5CCCC5)cc43)nc2)c1 [Compound 276, [1-[5-(4-Dimethylamino-pyridin-2-yl)-pyrimidin-2-yl]-spiro[1,2-dihydro-indole-3,1′-cyclopropane]-6-yl]-pyrrolidin-1-yl-methanone]
  IC50: < 0.1 µM

## CC(=O)Nc1ccnc(-c2cnc(N3CC4(CC4)c4ccc(C(=O)N(C)CCO)cc43)nc2)c1 [Compound 252, 1-[5-(4-Acetylamino-pyridin-2-yl)-pyrimidin-2-yl]-N-(2-hydroxy-ethyl)-N-methyl-spiro[1,2-dihydro-indole-3,1′-cyclopropane]-6-carboxylic acid amide]
  IC50: < 0.1 µM

## CN(CCO)C(=O)c1ccc2c(c1)N(c1ncc(-c3csc(C(N)=O)n3)cn1)CC21CC1 [Compound 327, 4-[2-[6-[(2-Hydroxy-ethyl)-methyl-carbamoyl]-spiro[1,2-dihydro-indole-3,1′-cyclopropane]-1-yl]-pyrimidin-5-yl]-thiazole-2-carboxylic acid amide]
  IC50: < 0.1 µM

## CC(CO)N(C)C(=O)c1ccc2c(c1)N(c1ncc(-c3ccccc3F)cn1)CC21CC1 (stereo not drawn) [Compound 285, 1-[5-(2-Fluorophenyl)-pyrimidin-2-yl]-N-(2-hydroxy-1-methyl-ethyl)-N-methyl-spiro[1,2-dihydro-indole-3,1′-cyclopropane]-6-carboxylic acid amide]
  IC50: < 0.1 µM

## C[S+]([O-])c1ccnc(-c2cnc(N3CC4(CC4)c4ccc(C(=O)N5CCOCC5)cc43)nc2)c1 (stereo not drawn) [Compound 344, (1′-(5-(4-(methylsulfinyl)pyridin-2-yl)pyrimidin-2-yl)spiro[cyclopropane-1,3′-indolin]-6′-yl)(morpholino)methanone]
  IC50: < 0.1 µM

## CC(O)c1ccnc(-c2cnc(N3CC4(CC4)c4ccc(C(=O)N5CCOCC5)cc43)nc2)c1 (stereo not drawn) [Compound 293, [1-[5-[4-(1-Hydroxy-ethyl)-pyridin-2-yl]-pyrimidin-2-yl]-spiro[1,2-dihydro-indole-3,1′-cyclopropane]-6-yl]-morpholin-4-yl-methanone]
  IC50: < 0.1 µM

## O=C(c1ccc2c(c1)N(c1ncc(-c3ccccc3F)cn1)CC21CC1)N1C[C@@H]2C[C@H]1CN2 [Compound 221, [(1S,4S)-2,5-Diazabicyclo[2.2.1]heptan-2-yl]-[1-[5-(2-fluorophenyl)-pyrimidin-2-yl]-spiro[1,2-dihydro-indole-3,1′-cyclopropane]-6-yl]-methanone]
  IC50: < 0.1 µM

## CC(=O)Nc1ccnc(-c2cnc(N3CC4(CC4)c4ccc(C(=O)N5CC6CC5CN6)cc43)nc2)c1 (stereo not drawn) [Compound 279, N-(2-(2-(6′-(2,5-diazabicyclo[2.2.1]heptane-2-carbonyl)spiro[cyclopropane-1,3′-indolin]-1′-yl)pyrimidin-5-yl)pyridin-4-yl)acetamide.HCl]
  IC50: < 0.1 µM

## CN(CC(N)=O)C(=O)c1ccc2c(c1)N(c1ncc(-c3ccccn3)cn1)CC21CC1 [Compound 320, N-(2-amino-2-oxoethyl)-N-methyl-1′-(5-(pyridin-2-yl)pyrimidin-2-yl)spiro[cyclopropane-1,3′-indoline]-6′-carboxamide]
  IC50: < 0.1 µM

## CN(CCO)C(=O)c1ccc2c(c1)N(c1ncc(-c3cc(N)ccc3F)cn1)CC21CC1 [Compound 228, 1-[5-(5-Amino-2-fluoro-phenyl)-pyrimidin-2-yl]-N-(2-hydroxy-ethyl)-N-methyl-spiro[1,2-dihydro-indole-3,1′-cyclopropane]-6-carboxylic acid amide]
  IC50: < 0.1 µM

## O=C(c1ccc2c(c1)N(c1ncc(-c3ccccc3)cn1)CC21CC1)N1C[C@@H]2C[C@H]1CN2 [Compound 249, [(1S,4S)-2,5-Diazabicyclo[2.2.1]heptan-2-yl]-[1-(5-phenyl-pyrimidin-2-yl)-spiro[1,2-dihydro-indole-3,1′-cyclopropane]-6-yl]-methanone]
  IC50: < 0.1 µM

## O=C(c1ccc2c(c1)N(c1ncc(-c3cccnn3)cn1)CC21CC1)N1CC2CC1CN2 (stereo not drawn) [Compound 274, (2,5-Diazabicyclo[2.2.1]heptan-2-yl)-[1-(5-pyridazin-3-yl-pyrimidin-2-yl)-spiro[1,2-dihydro-indole-3,1′-cyclopropane]-6-yl]-methanone hydrochloride]
  IC50: < 0.1 µM

## CN(C)C(=O)c1ccc2c(c1)N(c1ncc(-c3ccccn3)cn1)CC21CC1 [Compound 306, N,N-Dimethyl-1-(5-pyridin-2-yl-pyrimidin-2-yl)-spiro[1,2-dihydro-indole-3,1′-cyclopropane]-6-carboxylic acid amide]
  IC50: < 0.1 µM

## CN(CCO)C(=O)c1ccc2c(c1)N(c1ncc(-c3cc(F)ccn3)cn1)CC21CC1 [Compound 233, 1-[5-(4-Fluoro-pyridin-2-yl)-pyrimidin-2-yl]-N-(2-hydroxy-ethyl)-N-methyl-spiro[1,2-dihydro-indole-3,1′-cyclopropane]-6-carboxylic acid amide]
  IC50: < 0.1 µM

## CN(CCO)C(=O)c1ccc2c(c1)N(c1ncc(-c3cccc(F)n3)cn1)CC21CC1 [Compound 230, 1-[5-(6-Fluoro-pyridin-2-yl)-pyrimidin-2-yl]-N-(2-hydroxy-ethyl)-N-methyl-spiro[1,2-dihydro-indole-3,1′-cyclopropane]-6-carboxylic acid amide]
  IC50: < 0.1 µM

## Cc1nc(-c2cnc(N3CC4(CC4)c4ccc(C(=O)N(C)CCO)cc43)nc2)cs1 [Compound 324, N-(2-Hydroxy-ethyl)-N-methyl-1-[5-(2-methyl-thiazol-4-yl)-pyrimidin-2-yl]-spiro[1,2-dihydro-indole-3,1′-cyclopropane]-6-carboxylic acid amide]
  IC50: < 0.1 µM

## Cc1cccc(-c2cnc(N3CC4(CC4)c4ccc(C(=O)N(C)CC(N)=O)cc43)nc2)n1 [Compound 307, N-(Carbamoyl-methyl)-N-methyl-1-[5-(6-methyl-pyridin-2-yl)-pyrimidin-2-yl]-spiro[1,2-dihydro-indole-3,1′-cyclopropane]-6-carboxylic acid amide]
  IC50: < 0.1 µM

## N[C@@H]1CCN(C(=O)c2ccc3c(c2)N(c2ncc(-c4cc(C5CC5)ccn4)cn2)CC32CC2)C1 [Compound 335, (R)-(3-aminopyrrolidin-1-yl)(1′-(5-(4-cyclopropylpyridin-2-yl)pyrimidin-2-yl)spiro[cyclopropane-1,3′-indolin]-6′-yl)methanone]
  IC50: < 0.1 µM

## O=C(O)CN1CCN(C(=O)c2ccc3c(c2)N(c2ncc(-c4ccccc4F)cn2)CC32CC2)CC1 [Compound 237, 2-[4-[1-[5-(2-Fluorophenyl)-pyrimidin-2-yl]-spiro[1,2-dihydro-indole-3,1′-cyclopropane]-6-carbonyl]-pieprazin-1-yl]-acetic acid]
  IC50: 0.1 to 1 µM

## CN(CCO)C(=O)c1ccc2c(c1)N(c1ncc(-c3cc(C4(O)CC4)ccc3F)cn1)CC21CC1 [Compound 363, 1-[5-[2-Fluoro-5-(1-hydroxy-cyclopropyl)-phenyl]-pyrimidin-2-yl]-N-(2-hydroxy-ethyl)-N-methyl-spiro[1,2-dihydro-indole-3,1′-cyclopropane]-6-carboxylic acid amide]
  IC50: < 0.1 µM

## Nc1ccnc(-c2cnc(N3CC4(CC4)c4ccc(C(=O)N5C[C@H]6C[C@@H]5CN6)cc43)nc2)c1 [Compound 356, [1-[5-(4-Amino-pyridin-2-yl)-pyrimidin-2-yl]-spiro[1,2-dihydro-indole-3,1′-cylcopropane]-6-yl]-[(1R,4R)-2,5-diazabicyclo[2.2.1]heptan-2-yl]-methanone]
  IC50: < 0.1 µM
